Assay: in vitro
Settings: human, hela cells, % viability

SMILES	viability at 28.5 h, 10 µM [%]
CCN1C(=O)CC2(C1=O)C(=O)N(Cc1nnc(-c3ccc(C)cc3)o1)c1ccc(OC)cc12 (stereo not drawn) [CBK075586]	90.4
CCN1C(=O)CC2(C1=O)C(=O)N(CCCOc1ccc(Cl)cc1)c1ccc(C)cc12 (stereo not drawn) [CBK075648]	109
C=CCN1C(=O)CC2(C1=O)C(=O)N(CCCn1c(=O)c3c(ncn3C)n(C)c1=O)c1ccc(OC)cc12 (stereo not drawn) [CBK075701]	93.6
O=C1CCC(=O)N1CCN1C(=O)C2(CC(=O)N(Cc3ccccc3)C2=O)c2ccccc21 (stereo not drawn) [CBK075705]	101
Cn1cnc2c1c(=O)n(CCCN1C(=O)C3(CC(=O)N(Cc4ccccc4)C3=O)c3cc(F)ccc31)c(=O)n2C (stereo not drawn) [CBK075717]	76
COc1ccc2c(c1)C1(CC(=O)N(CC(=O)N(C)C)C1=O)C(=O)N2CCCN(C)S(C)(=O)=O (stereo not drawn) [CBK075889]	118
COc1ccc2c(c1)C1(CC(=O)N(CC(=O)N(C)C)C1=O)C(=O)N2CC(=O)c1ccccc1 (stereo not drawn) [CBK075913]	96.9
COc1ccc2c(c1)C1(CC(=O)N(CC(=O)N(C)C)C1=O)C(=O)N2Cc1ccc2ccccc2n1 (stereo not drawn) [CBK075923]	93.7
COc1cc(OC)nc(CN2C(=O)C3(CC(=O)N(CCCN4C(=O)c5ccccc5C4=O)C3=O)c3cc(C)ccc32)n1 (stereo not drawn) [CBK075992]	91.5
COc1cc(OC)nc(CN2C(=O)CC3(C2=O)C(=O)N(CCCN(C)C(=O)c2ccco2)c2ccc(F)cc23)n1 (stereo not drawn) [CBK076006]	85.6
COc1cccc(CN2C(=O)CC3(C2=O)C(=O)N(Cc2ccc4ccccc4n2)c2ccccc23)c1 (stereo not drawn) [CBK076016]	96.2
O=C1CCC(=O)N1CCN1C(=O)C2(CC(=O)N(CCC(F)(F)F)C2=O)c2ccccc21 (stereo not drawn) [CBK076031]	105
COc1ccc2c(c1)C1(CC(=O)N(CC(=O)N(C)OC)C1=O)C(=O)N2CCCCOc1ccccc1 (stereo not drawn) [CBK076032]	92.6
COc1ccc2c(c1)C1(CC(=O)N(Cc3ccccc3)C1=O)C(=O)N2CC(=O)O (stereo not drawn) [CBK076108]	92.5
CN1CCN(C(=O)c2ccc(-c3ccc4c(c3)OCO4)nc2NCc2cccnc2)CC1 [CBK076110]	90.7
O=C(NCCN1CCOCC1)c1ccc(-c2ccco2)nc1NCc1cccnc1 [CBK076112]	101
Cc1ccccc1-c1ccc(C(=O)NCCc2ccc(S(N)(=O)=O)cc2)c(NCc2cccnc2)n1 [CBK076116]	98.4
CN(C)C(=O)CN1C(=O)CC2(C1=O)C(=O)N(CC(=O)O)c1ccc(F)cc12 (stereo not drawn) [CBK076119]	101
Cc1ccccc1-c1ccc(C(=O)N2CCN(C)CC2)c(NCc2cccnc2)n1 [CBK076125]	93.2
Cc1ccccc1-c1ccc(C(=O)NC2CCCCC2)c(NCc2cccnc2)n1 [CBK076159]	90.5
CN(C)CCN(C)C(=O)c1ccc(-c2cc3ccccc3o2)nc1NCc1cccnc1 [CBK076160]	90.8

SMILES	viability at 28.5 h, 10 µM [%]
COCCOCN1C(=O)CC2(C1=O)C(=O)N(CC(=O)O)c1ccc(F)cc12 (stereo not drawn) [CBK076163]	90.5
Cc1ccccc1-c1ccc(C(=O)Nc2ccc3c(c2)OCO3)c(N2CCN(C(=O)c3ccco3)CC2)n1 [CBK076196]	101
CS(=O)(=O)c1cccc(-c2cnc(NCCOc3ccccc3)c(C(=O)NCCc3ccccc3)c2)c1 [CBK076201]	96.5
O=C(NCCN1CCOCC1)c1cc(Br)cnc1N1CCOCC1 [CBK076202]	104
COc1ccc(OCCNC(=O)c2ccc(-c3ccccc3C)nc2N2CCN(C(=O)c3ccco3)CC2)cc1 [CBK076207]	85.6
CCN1CCCC1CNC(=O)c1cc(Br)cnc1N1CCOCC1 (stereo not drawn) [CBK076213]	87.1
O=C(NCCc1c[nH]c2ccccc12)c1cc(Br)cnc1N1CCOCC1 [CBK076224]	91.7
NS(=O)(=O)c1ccc(CCNC(=O)c2cc(Br)cnc2N2CCOCC2)cc1 [CBK076225]	85.1
CC(=O)NCCNC(=O)c1cc(Br)cnc1NCCOc1ccccc1 [CBK076232]	103
O=C(NCc1ccc(F)cc1)c1cc(Br)cnc1N1CCOCC1 [CBK076246]	89.1
O=C(NCc1ccco1)c1cc(Br)cnc1N1CCOCC1 [CBK076268]	94.6
COc1ccc(-c2cnc(NCC3CC3)c(C(=O)NCc3ccco3)c2)cc1 [CBK076283]	96.3
COCCNC(=O)c1cc(-c2cccc(N(C)C)c2)cnc1NCC1CC1 [CBK076288]	93.9
CNC(=O)c1cccc(NC(=O)c2cc(-c3cccnc3)cnc2NCc2ccc3c(c2)OCO3)c1 [CBK076291]	89.4
Cc1ccc(C(=O)NCCN2CCOCC2)c(N2CCN(C(=O)c3ccco3)CC2)n1 [CBK076312]	101
COc1ccc(-c2cnc(NCC3CC3)c(C(=O)N3CCN(C)CC3)c2)cc1 [CBK076327]	96.6
COc1ccc(-c2cnc(NCCOc3ccccc3)c(C(=O)NCC3COc4ccccc4O3)c2)cc1 (stereo not drawn) [CBK076332]	97.2
CN(C)C(=O)c1cc(-c2cccc(N(C)C)c2)cnc1NCC1CC1 [CBK076333]	85.1
Cc1ccc(C(=O)NCCc2ccc(S(N)(=O)=O)cc2)c(N2CCN(C(=O)c3ccco3)CC2)n1 [CBK076345]	89
COc1ccc(-c2cnc(NCC3CC3)c(C(=O)NCCc3c[nH]c4ccccc34)c2)cc1 [CBK076349]	96.4
CC(=O)NCCNC(=O)c1cc(-c2cccc(S(C)(=O)=O)c2)cnc1NCC1CC1 [CBK076351]	93.9

SMILES	viability at 28.5 h, 10 µM [%]
Cc1ccc(C(=O)NCC2COc3ccccc3O2)c(N2CCN(C(=O)c3ccco3)CC2)n1 (stereo not drawn) [CBK076356]	93.9
CS(=O)(=O)c1cccc(-c2cnc(NCC3CC3)c(C(=O)Nc3ccc4c(c3)OCO4)c2)c1 [CBK076362]	95.2
Cc1ccc(C(=O)NNCc2ccccc2)c(NCc2cccnc2)n1 [CBK076369]	88.6
Cc1ccc(C(=O)NCCN2CCOCC2)c(NCCCn2ccnc2)n1 [CBK076371]	115
Cc1ccc(C(=O)Nc2ccc3c(c2)OCO3)c(N2CCOCC2)n1 [CBK076377]	92.9
CN(C)C(=O)c1cc(Br)cnc1NCCCn1ccnc1 [CBK076378]	98
COc1ccc(S(=O)(=O)NCCNC(=O)c2cc(-c3cccnc3)cnc2NCc2ccc3c(c2)OCO3)cc1 [CBK076379]	101
CCN1CCCC1CNC(=O)c1ccc(C)nc1NCCCn1ccnc1 (stereo not drawn) [CBK076382]	90.7
Cc1ccc(C(=O)NCc2ccco2)c(NCc2cccnc2)n1 [CBK076383]	102
Cc1ccc(C(=O)NC2CCCCC2)c(N2CCOCC2)n1 [CBK076388]	96.5
C=C(C)CNC(=O)c1ccc(C)nc1N1CCN(C(=O)c2ccco2)CC1 [CBK076401]	94.8
O=C(NCc1ccc(F)cc1)c1cc(Br)cnc1NCc1cccnc1 [CBK076405]	104
Cc1ccc(C(=O)NCc2ccco2)c(N2CCOCC2)n1 [CBK076410]	89.9
COc1ccc(S(=O)(=O)NCCNC(=O)c2ccc(-c3cccc(Cl)c3Cl)nc2NCc2cccnc2)cc1 [CBK076436]	116
COc1ccc(-c2cnc(NCC3CC3)c(C(=O)NCc3ccccc3SC)c2)cc1 [CBK076437]	110
O=C(NC1CCCCC1)c1cc(Br)cnc1NCc1cccnc1 [CBK076439]	91
Cc1ccc(C(=O)NCc2cccnc2)c(N2CCN(C(=O)c3ccco3)CC2)n1 [CBK076444]	83.9
COc1ccc(OCCNC(=O)c2cc(Br)cnc2N(C)C(C)=O)cc1 [CBK076467]	104
CS(=O)(=O)Nc1ncc(-c2ccco2)cc1C(=O)NCc1nc2ccccc2[nH]1 [CBK076468]	103
CN(C)C(=O)c1cc(-c2ccccc2)cnc1N(C)S(C)(=O)=O [CBK076473]	105
COc1ccc(S(=O)(=O)NCCNC(=O)c2cc(Br)cnc2N(C)S(C)(=O)=O)cc1 [CBK076477]	110

SMILES	viability at 28.5 h, 10 µM [%]
CS(=O)(=O)Nc1ncc(-c2ccco2)cc1C(=O)NCc1ccc(F)cc1 [CBK076479]	112
CS(=O)(=O)Nc1ncc(-c2ccco2)cc1C(=O)Nc1ccon1 [CBK076512]	89.6
CCN1CCCC1CNC(=O)c1cc(Br)cnc1N(C)C(C)=O (stereo not drawn) [CBK076524]	85.2
CC(=O)N(C)c1ncc(Br)cc1C(=O)N(C)C [CBK076533]	97.1
CS(=O)(=O)Nc1ncc(Br)cc1C(=O)NCc1ccc(F)cc1 [CBK076538]	89.6
COc1ccc(-c2cnc(NS(C)(=O)=O)c(C(=O)NCc3ccco3)c2)cc1 [CBK076539]	94.9
CC(=O)N(C)c1ncc(Br)cc1C(=O)NCCc1ccccc1 [CBK076543]	93.8
COCCNc1nc(-c2ccccc2CO)ccc1C(=O)NCCNC(C)=O [CBK076548]	101
O=C(NCC(F)(F)F)c1ccc(-c2ccccc2)nc1NCc1cccnc1 [CBK076551]	95
CC(=O)N(C)c1ncc(Br)cc1C(=O)NCC1COc2ccccc2O1 (stereo not drawn) [CBK076558]	91.7
COCCNC(=O)c1ccc(-c2ccccc2CO)nc1N1CCOCC1 [CBK076559]	97.6
C=CCNC(=O)c1ccc(-c2cccc(N(C)C)c2)nc1NCc1cccnc1 [CBK076566]	91.3
CS(=O)(=O)Nc1ncc(-c2ccco2)cc1C(=O)NCCc1c[nH]c2ccccc12 [CBK076569]	90.5
CC(=O)N(C)c1nc(-c2cccc(N(C)C)c2)ccc1C(=O)NCCc1ccc(S(N)(=O)=O)cc1 [CBK076578]	88.8
CC(=O)N(C)c1nc(-c2cccc(N(C)C)c2)ccc1C(=O)NC1CCS(=O)(=O)C1 (stereo not drawn) [CBK076590]	103
CN(C)CCN(C)C(=O)c1ccc(-c2ccccc2CO)nc1N(C)C [CBK076591]	95
CC(=O)Nc1cccc(-c2cnc(N(C)S(C)(=O)=O)c(C(=O)NCc3ccc4c(c3)CCO4)c2)c1 [CBK076609]	99.7
CC(=O)c1ccccc1-c1ccc(C(=O)N2CCN(C)CC2)c(NCC2CC2)n1 [CBK076613]	92.8

Source: PMC12040169 (PLOS Biology, 2025)
